The values below come from patent publication US8026070B2 (priority 2005, dated 2011).

Several values for one entry are separate records, joined by “and”; a condition that tells them apart may be missing. Equal entries are not always repeated. Where two headings read alike, the source gives them in different places.

The test has as its system human recombinant PrP spiked into human plasma.

For the molecule `NCCCCCC(=O)O` [ACA, 6-aminohexanoic acid], the “Effect on detection of spiked human recombinant prion protein in human plasma” value is “enhanced the detection”; the “Non-specific binding, optical density at 450 nm” value is 0.4665 and 0.4128 and 0.4549; the “Only Plasma, optical density at 450 nm” value was 0.4036 and 0.4098 and 0.3737; the “Plasma with human recombinant PrP, optical density at 450 nm” value was 0.52 and 0.5723 and 0.6507. In addition, the “Ratio of Signals (ratio of signals from spiked plasma and only plasma samples)” value is 1.3 and 1.4 and 1.7.

For `NC[C@H]1CC[C@H](C(=O)O)CC1` [AMCHA, trans-(aminomethyl)cyclohexanecarboxylic acid], the “Ratio of Signals (ratio of signals from spiked plasma and only plasma samples)” value was 1.7 and 1.6 and 1.8. Further, the “Effect on detection of spiked human recombinant prion protein in human plasma” value (all concentrations (1, 10, 100 mM) in the sample preparation buffer) is listed as “enhanced the detection”.
